Patent publication US9994547B2, “Heteroarylamide inhibitors of TBK1” (Takeda Pharmaceutical Company Limited, priority 2014, dated 2018)

Target: Full length human TBK1 (Homo sapiens (Human), UniProt Q9UHD2)
Assay: Inhibition of TBK1 Enzyme (Example A)
Type: biochemical
Conditions: -log(IC50), IC50 molar; 3 nM TBK1, 25 μM ATP, 60 min RT
Method: Full length human TBK1 with an N-terminal His-tag was cloned into the pFastBacl vector and was transfected into Sf9 cells. 72 hours later the virus was harvested and amplified through two additional rounds of infections. Then 400 mL of the resulting virus stock was used to infect 10 L of Sf9 cells at a density of 2×10^6 cells/mL. Cell pellets were harvested 48 hours post infection and were lysed by freeze-thaw, homogenization and sonication in binding buffer (25 mM Tris pH7.6, 1 M NaCl, 10 mM imidazole, 0.5 mM TCEP) plus 0.1% Triton X-100 and complete protease inhibitor cocktail. The lysate was spun and the supernatant was purified with a HisTrap FF crude and a Superdex 200 pg column.
TBK1 inhibition is determined using a 384 well plate format in buffer containing 20 mM Hepes, pH 7.4, 10 mM MgCl2, 1 mM EDTA, 0.01% Brij-L23, 1 mM DTT. Each test compound is prepared in DMSO using 2.5-fold serial dilutions for 11 data points, which are added to the buffer so that each dilution contains 1% DMSO. To each well is added 2 μL of 1 μM 5FAM-DRHDSGLDSMKDE-NH2 (in buffer), 2 μL of diluted test compound (1% DMSO in buffer), and 5 μL of 3 nM TBK1 and 25 μM ATP (in buffer). The reaction mixture is incubated at RT for 60 min, and quenched by adding 20 mM Hepes, pH 7.4, 10 mM MgCl2, 1 mM EDTA, 0.01% Brij-L23, 1 mM DTT+25 mM EDTA. To quantify the fluorescent-labeled substrate and product following reaction, the test plate is loaded on a Caliper LC-3000, which measures percent of conversion by microfluidic-based separation. Corresponding IC50 values are calculated by non-linear curve fitting of the compound concentrations and percent of inhibition to the standard IC50 equation and reported as pIC50, i.e., −log(IC50), where IC50 is the molar concentration.

Sequence of Full length human TBK1 (Q9UHD2 whole entry): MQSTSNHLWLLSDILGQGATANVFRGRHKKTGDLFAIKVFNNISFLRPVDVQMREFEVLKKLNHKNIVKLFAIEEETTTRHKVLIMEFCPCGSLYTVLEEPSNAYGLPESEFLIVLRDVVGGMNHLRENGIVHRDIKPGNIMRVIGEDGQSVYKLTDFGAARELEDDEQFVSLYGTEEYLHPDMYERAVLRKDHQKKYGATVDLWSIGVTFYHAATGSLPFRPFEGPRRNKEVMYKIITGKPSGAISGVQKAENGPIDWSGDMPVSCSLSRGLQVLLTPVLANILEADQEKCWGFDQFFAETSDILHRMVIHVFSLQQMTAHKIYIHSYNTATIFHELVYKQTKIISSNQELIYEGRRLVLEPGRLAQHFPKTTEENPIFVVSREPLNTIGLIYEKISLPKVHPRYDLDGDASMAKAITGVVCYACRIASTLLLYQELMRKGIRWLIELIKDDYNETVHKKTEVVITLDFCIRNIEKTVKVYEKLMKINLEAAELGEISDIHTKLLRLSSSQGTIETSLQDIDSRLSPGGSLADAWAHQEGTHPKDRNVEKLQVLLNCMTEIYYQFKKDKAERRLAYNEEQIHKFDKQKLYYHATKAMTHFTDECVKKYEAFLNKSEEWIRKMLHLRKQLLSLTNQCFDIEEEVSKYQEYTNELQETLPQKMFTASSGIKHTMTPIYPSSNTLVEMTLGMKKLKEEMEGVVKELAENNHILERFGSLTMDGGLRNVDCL

TBK1 Inhibition (pIC50) | SMILES
8.6 | C[C@H](Nc1cc(-c2cnc(NC(=O)C3CC3)cn2)cnc1C#N)C(=O)N(C)CC(F)F [Example 53, (S)-N-(5-(6-cyano-5-((1-((2,2-difluoroethyl)(methyl)amino)-1-oxopropan-2-yl)amino)pyridin-3-yl)pyrazin-2-yl)cyclopropanecarboxamide]
8.0 | C[C@H](Nc1cc(-c2cnc(NC(=O)C3CC3)cn2)cnc1C#N)C(=O)N(C)CCF [Example 54, (S)-N-(5-(6-cyano-5-((1-((2-fluoroethyl)(methyl)amino)-1-oxopropan-2-yl)amino)pyridin-3-yl)pyrazin-2-yl)cyclopropanecarboxamide]
7.6 | C[C@H](Nc1cc(-c2cnc(NC(=O)C3CC3)cn2)cnc1C#N)C(=O)N1CCC[C@@H]1C#N [Example 55, N-(5-(6-cyano-5-(((S)-1-((R)-2-cyanopyrrolidin-1-yl)-1-oxopropan-2-yl)amino)pyridin-3-yl)pyrazin-2-yl)cyclopropanecarboxamide]
7.7 | CC[C@H](Nc1cc(-c2cnc(NC(=O)C3CC3)cn2)cnc1C#N)C(=O)N(C)CCF [Example 56, (S)-N-(5-(6-cyano-5-((1-((2-fluoroethyl)(methyl)amino)-1-oxobutan-2-yl)amino)pyridin-3-yl)pyrazin-2-yl)cyclopropanecarboxamide]
7.2 | CN(C)C(=O)[C@H](CO)Nc1cc(-c2cnc(NC(=O)C3CC3)cn2)cnc1C#N [Example 57, (S)-N-(5-(6-cyano-5-((1-(dimethylamino)-3-hydroxy-1-oxopropan-2-yl)amino)pyridin-3-yl)pyrazin-2-yl)cyclopropanecarboxamide]
7.3 | CN(CC(F)F)C(=O)[C@H](CO)Nc1cc(-c2cnc(NC(=O)C3CC3)cn2)cnc1C#N [Example 58, (S)-N-(5-(6-cyano-5-((1-((2,2-difluoroethyl)(methyl)amino)-3-hydroxy-1-oxopropan-2-yl)amino)pyridin-3-yl)pyrazin-2-yl)cyclopropanecarboxamide]
6.7 | CC(C#N)NC(=O)CNc1cc(-c2cnc(NC(=O)C3CC3)cn2)cnc1C#N (stereo not shown) [Example 59, N-(5-(6-cyano-5-((2-((1-cyanoethyl)amino)-2-oxoethyl)amino)pyridin-3-yl)pyrazin-2-yl)cyclopropanecarboxamide]
7.4 | C[C@H](Nc1cc(-c2cnc(NC(=O)C3CC3)cn2)cnc1C#N)C(=O)N1CCO[C@@H]1C(F)(F)F [Example 60, N-(5-(6-cyano-5-((S)-1-oxo-1-((R)-2-(trifluoromethyl)oxazolidin-3-yl)propan-2-ylamino)pyridin-3-yl)pyrazin-2-yl)cyclopropanecarboxamide]
6.0 | C[C@H](Nc1cc(-c2cnc(NC(=O)C3CC3)cn2)cnc1C#N)C(=O)N1CCO[C@H]1C(F)(F)F [Example 61, N-(5-(6-cyano-5-((S)-1-oxo-1-((S)-2-(trifluoromethyl)oxazolidin-3-yl)propan-2-ylamino)pyridin-3-yl)pyrazin-2-yl)cyclopropanecarboxamide]
6.6 | CC(C#N)NC(=O)[C@H](C)Nc1cc(-c2cnc(NC(=O)C3CC3)cn2)cnc1C#N (stereo partly drawn) [Example 62, N-(5-(6-cyano-5-(((2S)-1-((1-cyanoethyl)amino)-1-oxopropan-2-yl)amino)pyridin-3-yl)pyrazin-2-yl)cyclopropanecarboxamide]
7.2 | N#Cc1ncc(-c2cnc(NC(=O)C3CC3)cn2)cc1NCC(=O)N1CCOCC1C#N (stereo not shown) [Example 63, N-(5-(6-cyano-5-((2-(3-cyanomorpholino)-2-oxoethyl)amino)pyridin-3-yl)pyrazin-2-yl)cyclopropanecarboxamide]
7.5 | N#Cc1ncc(-c2cnc(NC(=O)C3CC3)cn2)cc1NCC(=O)N1CCOC1C(F)(F)F (stereo not shown) [Example 64, N-(5-(6-cyano-5-((2-oxo-2-(2-(trifluoromethyl)oxazolidin-3-yl)ethyl)amino)pyridin-3-yl)pyrazin-2-yl)cyclopropanecarboxamide]
6.9 | CN(CCC#N)C(=O)CNc1cc(-c2cnc(NC(=O)C3CC3)cn2)cnc1C#N [Example 65, N-(5-(6-cyano-5-((2-((2-cyanoethyl)(methyl)amino)-2-oxoethyl)amino)pyridin-3-yl)pyrazin-2-yl)cyclopropanecarboxamide]
6.6 | CN(CCS(C)(=O)=O)C(=O)CNc1cc(-c2cnc(NC(=O)C3CC3)cn2)cnc1C#N [Example 66, N-(5-(6-cyano-5-((2-(methyl(2-(methylsulfonyl)ethyl)amino)-2-oxoethyl)amino)pyridin-3-yl)pyrazin-2-yl)cyclopropanecarboxamide]
6.3 | C[C@H](Nc1cc(-c2cnc(NC(=O)C3CC3)cn2)cnc1C#N)C(=O)N(C)CCN(C)C [Example 67, (S)-N-(5-(6-cyano-5-((1-((2-(dimethylamino)ethyl)(methyl)amino)-1-oxopropan-2-yl)amino)pyridin-3-yl)pyrazin-2-yl)cyclopropanecarboxamide]
7.4 | CN(C)C(=O)C(CC(F)F)Nc1cc(-c2cnc(NC(=O)C3CC3)cn2)cnc1C#N (stereo not shown) [Example 68, N-(5-(6-cyano-5-((1-(dimethylamino)-4,4-difluoro-1-oxobutan-2-yl)amino)pyridin-3-yl)pyrazin-2-yl)cyclopropanecarboxamide]
7.7 | CC(C#N)N(C)C(=O)[C@H](C)Nc1cc(-c2cnc(NC(=O)C3CC3)cn2)cnc1C#N (stereo partly drawn) [Example 69, N-(5-(6-cyano-5-(((2S)-1-((1-cyanoethyl)(methyl)amino)-1-oxopropan-2-yl)amino)pyridin-3-yl)pyrazin-2-yl)cyclopropanecarboxamide]
7.1 | CC[C@H](Nc1cc(-c2cnc(NC(=O)C3CC3)cn2)cnc1C#N)C(=O)N(C)CCO [Example 70, (S)-N-(5-(6-cyano-5-((1-((2-hydroxyethyl)(methyl)amino)-1-oxobutan-2-yl)amino)pyridin-3-yl)pyrazin-2-yl)cyclopropanecarboxamide]
6.6 | CN(C(=O)CNc1cc(-c2cnc(NC(=O)C3CC3)cn2)cnc1C#N)C1CCOC1 (stereo not shown) [Example 71, N-(5-(6-cyano-5-((2-(methyl(tetrahydrofuran-3-yl)amino)-2-oxoethyl)amino)pyridin-3-yl)pyrazin-2-yl)cyclopropanecarboxamide]
7.8 | N#Cc1ncc(-c2cnc(NC(=O)C3CC3)cn2)cc1NCC(=O)N(CCO)CC(F)F [Example 72, N-(5-(6-cyano-5-((2-((2,2-difluoroethyl)(2-hydroxyethyl)amino)-2-oxoethyl)amino)pyridin-3-yl)pyrazin-2-yl)cyclopropanecarboxamide]
7.0 | C[C@H](Nc1cc(-c2cnc(NC(=O)C3CC3)cn2)cnc1C#N)C(=O)N(C)CC1CC1 [Example 73, (S)-N-(5-(6-cyano-5-((1-((cyclopropylmethyl)(methyl)amino)-1-oxopropan-2-yl)amino)pyridin-3-yl)pyrazin-2-yl)cyclopropanecarboxamide]
5.5 | C[C@H](Nc1cc(-c2cnc(NC(=O)C3CC3)cn2)cnc1C#N)C(=O)N(C)c1cccnc1 [Example 74, (S)-N-(5-(6-cyano-5-((1-(methyl(pyridin-3-yl)amino)-1-oxopropan-2-yl)amino)pyridin-3-yl)pyrazin-2-yl)cyclopropanecarboxamide]
